Data taken from paper PMC6627698, “Redesigning Arenicin-1, an Antimicrobial Peptide from the Marine Polychaeta Arenicola marina, by Strand Rearrangement or Branching, Substitution of Specific Residues, and Backbone Linearization or Cyclization” (Marine Drugs, 2019).
pIC50: −log10 of the molar value. Residues, ends and D or L forms follow the SMILES beside them.

Legend:
[1] = tested on: E. coli ATCC 25922; assay type: cell-based, Escherichia coli; conditions: ATCC 25922, 18 h
Source text: (§1) E. coli ML35p, Listeria monocytogenes EGD, methicillin-resistant Staphylococcus aureus (MRSA) ATCC 33591 were kindly provided by Prof. Robert Lehrer (University of California, Los Angeles, CA, USA); E. coli ATCC 25922, E. coli M15, Pseudomonas aeruginosa ATCC 27853, S. aureus ATCC 25923 were provided by Dr. Elena Ermolenko (Institute of Experimental Medicine, St-Petersburg, Russia); drug-resistant clinical isolates were provided by Prof. Gennadiy Afinogenov (Saint Petersburg State University, Russia); S. aureus 710A has been described previously. The following clinical isolates of bacteria were used: P.s aeruginosa resistant to aztreonam, ceftazidime, cefotaxime (obtained from the urine of a patient with cystitis), Acinetobacter baumannii resistant to meropenem (from an infected wound); Staphylococcus intermedius (from an infected wound caused by a dog bite) resistant to ciprofloxacin, cefuroxime, clindamycin, erythromycin, rifampin, gentamicin, benzylpenicillin, oxacillin.
(§2) This assay was applied to determine the MIC, according to the guidelines of the Clinical and Laboratory Standards Institute, using Mueller Hinton (MH) Broth. We prepared 2x stocks of peptides and serially diluted them in sterile PBS instead of Mueller Hinton Broth, so that the treatment of the bacteria with the peptides was carried out in a medium containing 50% of MH and 50% of PBS, as described. The overnight cultures of each strain were transferred to fresh MH media and further incubated to obtain a mid-logarithmic-growth-phase culture of bacteria. The absorbance of each bacterial suspension was measured at 620 nm, and bacteria were then diluted to approximately 2 × 10^5 CFU/mL. Then, 50 µL of the suspensions were mixed with 50 µL of the peptide dilutions in the wells of a microtiter plate (pre-treated for 1 h at 37 °C with 0.2% bovine serum albumin (BSA) in water, sterilized by filtration, to diminish the non-specific binding of the peptides to the plastic surfaces).

[2] = tested on: E. coli M15; assay type: cell-based, Escherichia coli; conditions: M15, 18 h
Source text: as §1, §2

[3] = tested on: Acinetobacter baumanii c.i.; assay type: cell-based, Acinetobacter baumannii; conditions: 18 h
Source text: as §1, §2

[4] = tested on: set of Gram-negative and Gram-positive bacteria, including drug-resistant clinical isolates; assay type: cell-based; conditions: 12 strains; median MICs used; MIC > 16 µM taken as 32 µM
Method: To obtain a global assessment of the effect on antimicrobial activity, the geometric mean of the MIC (G-MIC) was calculated, and from this, the overall improvement or impoverishment with respect to arenicin-1. In general, inverting the symmetry or decreasing the charge had detrimental effects.
The overall activity against a set of tested bacterial strains was determined by way of the commonly used geometric mean of measured MIC values. […] At the same time, the geometric mean can still discriminate antimicrobial agents showing minor variations in activity; in other words, it has a better “resolution” than the median MIC (MIC50). Some mathematical basics for choosing the geometric mean for antimicrobial activity comparison are further discussed in the Supplementary Chapter S3.

[5] = tested on: P. aeruginosa c.i.; assay type: cell-based, Pseudomonas aeruginosa; conditions: 18 h
Source text: as §1, §2

[6] = tested on: Staphylococcus aureus 710A; assay type: cell-based; conditions: 18 h
Source text: as §1, §2

[7] = tested on: Pseudomonas aeruginosa ATCC 27853; assay type: cell-based; conditions: ATCC 27853, 18 h
Source text: as §1, §2

[8] = tested on: Listeria monocytogenes EGD; assay type: cell-based; conditions: 18 h
Source text: as §1, §2

[9] = tested on: Escherichia coli ML35p; assay type: cell-based; conditions: broth microdilution, 50% Mueller Hinton broth / 50% PBS, 18 h at 37 °C, median of 3–5 experiments in triplicates
Source text: as §1, §2

[10] = tested on: human erythroleukemia K-562 cells; assay type: cell-based; conditions: 24 h
Method: The standard MTT ((3-(4,5-Dimethylthiazol-2-yl)-2,5-diphenyltetrazolium bromide) test was used for the examination of the cytotoxic activity of AMPs towards human erithroleukemia cells K-562. The cells were purchased from Biolot (Saint Petersburg, Russia) and were grown in RPMI 1640 medium (Biolot, Saint Petersburg, Russia) supplemented with glutamine and 10% FCS. Before the experiment, the culturing medium was replaced with serum-free RPMI 1640. Serial dilutions of the peptides in RPMI were plated in sterile 96-well microplates, and the target cells were dispensed to the microplates (10^5 cells/well in RPMI 1640). The plates were incubated for 24 h at 37 °C under 5% CO2. Cell-free media and cells incubated without peptides served as controls. Four hours before the incubation ended, MTT in PBS (5 mg/mL) was added to each well. After the incubation was stopped by adding isopropanol/ 0.04 M HCl, the optical density was measured at 540 nm, subtracting the background absorbance at 690 nm. Toxicity was determined by nonlinear regression analysis of the corresponding dose–response curves using the Sigma Plot 11 program to calculate the IC50 values (the concentration of the test substance that reduced the OD540 capacity by 50%).

[11] = tested on: S. aureus ATCC 25923; assay type: cell-based, Staphylococcus aureus; conditions: ATCC 25923, 18 h
Source text: as §1, §2

[12] = tested on: MRSA ATCC 33591; assay type: cell-based, Staphylococcus aureus; conditions: ATCC 33591, 18 h
Source text: as §1, §2

[13] = tested on: S. aureus c.i.; assay type: cell-based, Staphylococcus aureus; conditions: 18 h
Source text: as §1, §2

[14] = tested on: Staphylococcus intermidius; assay type: cell-based, Staphylococcus intermedius; conditions: 18 h
Source text: as §1, §2

SMILES: CC(C)C[C@@H]1NC(=O)[C@H](C(C)C)NC(=O)CNC(=O)[C@H](CCCNC(=N)N)NC(=O)[C@H](C(C)C)NC(=O)[C@H](CCCNC(=N)N)NC(=O)[C@H](C(C)C)NC(=O)[C@H](Cc2ccc(O)cc2)NC(=O)[C@H](C)NC(=O)[C@H](Cc2ccc(O)cc2)NC(=O)[C@H](C(C)C)NC(=O)[C@@H](NC(=O)[C@H](Cc2c[nH]c3ccccc23)NC(=O)[C@@H](N)CCCNC(=N)N)CSSC[C@@H](C(=O)N[C@@H](Cc2c[nH]c3ccccc23)C(=O)O)NC(=O)[C@H](CCCNC(=N)N)NC(=O)[C@H](CCCNC(=N)N)NC(=O)[C@H](Cc2ccc(O)cc2)NC(=O)[C@H](CCCNC(=N)N)NC(=O)[C@H](C(C)C)NC1=O [AR, Arenicin-1] (HELM PEPTIDE1{R.W.C.V.Y.A.Y.V.R.V.R.G.V.L.V.R.Y.R.R.C.W}$PEPTIDE1,PEPTIDE1,3:R3-20:R3$$$V2.0)
- Minimal Inhibitory Concentrations (MIC) [1]: 2 µM
- Minimal Inhibitory Concentrations (MIC) [2]: 2 µM
- Minimal Inhibitory Concentrations (MIC) [3]: 4 µM
- G-MIC (geometric mean of all determined MICs) [4]: 2.7 µM
- Minimal Inhibitory Concentrations (MIC) [5]: 4 µM
- Minimal Inhibitory Concentrations (MIC) [6]: 2 µM
- Minimal Inhibitory Concentrations (MIC) [7]: 2 µM
- Minimal Inhibitory Concentrations (MIC) [8]: 1 to 2 µM
- Minimal Inhibitory Concentrations (MIC) [9]: 1 to 2 µM
- pIC50 [10]: 4.75
- Minimal Inhibitory Concentrations (MIC) [11]: 2 µM
- Minimal Inhibitory Concentrations (MIC) [12]: 4 µM
- Minimal Inhibitory Concentrations (MIC) [13]: 4 µM
- Minimal Inhibitory Concentrations (MIC) [14]: 8 µM

SMILES: CC(C)C[C@@H]1NC(=O)[C@H](C(C)C)NC(=O)CNC(=O)[C@H](CCCNC(=N)N)NC(=O)[C@H](C(C)C)NC(=O)[C@H](CCCNC(=N)N)NC(=O)[C@H](C(C)C)NC(=O)[C@H](Cc2ccc(O)cc2)NC(=O)[C@H](C)NC(=O)[C@H](Cc2ccc(O)cc2)NC(=O)[C@H](C(C)C)NC(=O)[C@@H](NC(=O)[C@H](Cc2ccccc2)NC(=O)[C@@H](N)CCCNC(=N)N)CSSC[C@@H](C(=O)N[C@@H](Cc2ccccc2)C(=O)O)NC(=O)[C@H](CCCNC(=N)N)NC(=O)[C@H](CCCNC(=N)N)NC(=O)[C@H](Cc2ccc(O)cc2)NC(=O)[C@H](CCCNC(=N)N)NC(=O)[C@H](C(C)C)NC1=O [AR-F] (HELM PEPTIDE1{R.F.C.V.Y.A.Y.V.R.V.R.G.V.L.V.R.Y.R.R.C.F}$PEPTIDE1,PEPTIDE1,3:R3-20:R3$$$V2.0; N-terminus and C-terminus assumed)
- Minimal Inhibitory Concentrations (MIC) [1]: 1 µM
- Minimal Inhibitory Concentrations (MIC) [2]: 1 µM
- Minimal Inhibitory Concentrations (MIC) [3]: 2 µM
- G-MIC (geometric mean of all determined MICs) [4]: 1.8 µM
- Minimal Inhibitory Concentrations (MIC) [5]: 2 µM
- Minimal Inhibitory Concentrations (MIC) [6]: 2 µM
- Minimal Inhibitory Concentrations (MIC) [7]: 1 µM
- Minimal Inhibitory Concentrations (MIC) [8]: 2 µM
- Minimal Inhibitory Concentrations (MIC) [9]: 1 µM
- pIC50 [10]: 5.03
- Minimal Inhibitory Concentrations (MIC) [11]: 2 µM
- Minimal Inhibitory Concentrations (MIC) [12]: 2 µM
- Minimal Inhibitory Concentrations (MIC) [13]: 4 µM
- Minimal Inhibitory Concentrations (MIC) [14]: 4 µM
